# Data reported in patent US20220142967A1, “Methods and Compositions for the Treatment of Multiple Sclerosis” (SYMBIONYX PHARMACEUTICALS INC, priority 2018, published 2022).
# Where a name gives a salt, the structure may show the parent alone.
# Tests used:
# cultured astrocytes = test: RNA-seq of cultured astrocytes compared with MS patient white matter astrocytes (GSE83670); type: cell-based, human; conditions: cultured astrocytes vs. LCM-dissected MS patient astrocytes
# Experimental: Previously, Waller et al. 2016 (J Neuroimmunol 299:139-146) used laser capture microdissection (LCM) to isolate astrocytes from normal appearing white matter in MS patients and CTL subjects (GEO dataset GSE83670; PMID: 27125112).
# cDNA sequencing was performed by the University of Michigan sequencing core facility (50 cycle single end Illumina HiSeq 2000). The FASTX-Toolkit was used to filter reads by removing low quality sequences and initial quality assessments were performed using FastQC. Quality-filtered reads were mapped to the human genome (hg38/GRCh38, UCSC) using tophat2 with default settings, except multi-mapping of reads to multiple genome locations was disallowed (settings: -g 1 —no-coverage-search). The hg38/GRCh38 genome is the most recent release available from UCSC. HTSeq was used to tabulate the number of reads mapping to each genome feature and Cufflinks was used to calculate FPKM estimates and associated confidence intervals. RSeQC was used to assess quality of mapping and calculate the percentage of mapped reads. The negative binomial model (edgeR) was used to evaluate differential expression, with read counts normalized using the weighted trimmed mean of M-values method, and dispersions estimated using the Cox-Reid (CR)-adjusted likelihood approach. Differential expression analyses were performed using genes with detectable expression in at least 1 of 4 samples involved in a given comparison. A gene was considered to have detectable expression in a sample if the count per million mapped reads (cpm) estimate was greater than 0.20 and if the lower bound of the FPKM 95% confidence interval was greater than zero.
# FIG. 3 presents in scatterplot and histogram format the results of the study on the astrocytes. Scatterplots (A) and (D) compare fold change (FC) estimates in DMF-treated (A) and IDMF-treated (D) astrocytes to LCM-dissected astrocytes in MS patients and healthy controls (CTLs). Each point represents a protein-coding gene and the light colored ellipses outline the 90% of genes closest to the bivariate mean based upon the Mahalanobis distance. The Spearman rank correlation coefficient estimate is shown (upper-left). The proportion of genes within each quadrant is indicated in the upper margin (P<0.05, Fisher's exact test), wherein the quadrants are defined by a vertical and horizontal line through the “1” in each axis with the proportion corresponding, left to right to the upper left, the upper right, the lower right and lower left quadrants, respectively. Gene set overlap is presented in (B), (C), (E) and (F) wherein genes within each set were altered with a P<0.05 threshold. P-values from the test of overlap significance are shown (bottom margin, Fisher's exact test). […]
# human fetal astrocytes = test: A1 v A2 marker activation, RNA-seq of H2O2-stimulated astrocytes; type: cell-based; conditions: 2.5 μM, 24 hrs, H2O2 (50 μM) stimulated
# Experimental: The treated cells were stimulated with H2O2 (50 μM) for 20 min and the RNA extracted 1 day later and sequenced using the Illumina HiSeq 2000 with an average of 39.3 million reads per sample. Reads were mapped to the GHch38/hg38 genome. 13,968 protein-coding genes had detectable expression on average among the 6 samples. Differentially expressed genes (DEGs) were identified using negative binomial models with FDR threshold of <0.10 and fold change (FC) criteria (FC>1.30 or FC<0.77). Gene set enrichment testing was performed using public database annotations. Motif enrichment with respect to DEG up-stream regions was characterized using semiparametric generalized additive logistics models. The overlap between the identified DEGs and MS-associated genes, i.e., genes from MS patients and genes linked to inflammatory (A1) and ischemic (A2) astrogliosis.
# [1] = target: T1, carboxylesterase 2 (CES2) (Homo sapiens, UniProt O00748); test: Carboxylesterase hydrolysis IDMF v DMF; type: in vitro ADME; conditions: for remaining parent compound: 1 mg/ml CES2, 37° C., pH 7.4
# T1 sequence (O00748 27-559): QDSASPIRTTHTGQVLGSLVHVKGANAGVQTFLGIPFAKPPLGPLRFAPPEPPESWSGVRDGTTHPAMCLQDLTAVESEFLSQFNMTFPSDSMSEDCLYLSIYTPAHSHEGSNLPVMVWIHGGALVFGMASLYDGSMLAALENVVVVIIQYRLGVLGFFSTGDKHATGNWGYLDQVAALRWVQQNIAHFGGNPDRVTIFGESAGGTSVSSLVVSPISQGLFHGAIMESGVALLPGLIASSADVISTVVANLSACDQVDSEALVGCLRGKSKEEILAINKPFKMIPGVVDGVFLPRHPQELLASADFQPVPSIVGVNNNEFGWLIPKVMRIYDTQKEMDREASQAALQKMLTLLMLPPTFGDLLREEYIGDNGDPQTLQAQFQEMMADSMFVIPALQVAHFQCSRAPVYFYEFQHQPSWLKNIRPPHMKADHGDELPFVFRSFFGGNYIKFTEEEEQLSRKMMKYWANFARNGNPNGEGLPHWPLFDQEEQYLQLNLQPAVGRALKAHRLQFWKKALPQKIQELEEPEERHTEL
# Experimental: IDMF and DMF were subjected to carboxylesterase hydrolysis. […] 1 mg/ml carboxylesterase 2 (CES2) was added to each solution and the solutions incubated at 37° C. for the time periods set forth in Table 5. […] Isosorbide was quantified using CAD. Mobile phase used for the study: 0.1% Formic acid in water; B: Methanol. Column: Luna C18 4.6 mm×100 mm, 5 u (Phenomenex). Flow rate: 1.0 ml/min.
# MS = MS patients, oral therapy; cited from earlier work
# [2] = tested on: patients with relapsing remitting MS (RRMS); conditions: cited from earlier work
# [3] = tested on: human fetal astrocytes derived from cerebral cortex; test: Transcriptome analysis of astrocyte cultures treated with MMF, DRF, IDMF; type: cell-based; conditions: 2.5 μM, 24 hours
# Experimental: (§1) Experiments were performed using human fetal astrocytes derived from cerebral cortex (cat. no. 882A-05f; Cell Applications, Sant Diego, Calif.). Cells were grown to subconfluence in human astrocyte growth medium (cat. no. 820-500, Cell Applications). […] Test materials were added to subconfluent cultures at a concentration of 2.5 μM and cells were incubated for 24 hours.
# (§2) RNA was extracted following the incubation period using the RNAeasy Mini Plus kit (Qiagen, Hilden, Germany) and robotic Qiacube Connect station (Qiagen). Samples were shipped on dry ice to the Thermo Fisher Microarray Research Services Laboratory (Santa Clara, Calif.) for transcriptome analysis. RNA quality analysis was performed upon sample receipt using the NanoDrop Lite (Thermo Fisher Scientific, Waltham, Mass.). All samples had 260/280 nm absorbance ratios higher than 1.90, consistent with high-purity RNA.
# In follow-up to the study of Example, 1 above, genes associated with multiple sclerosis were identified based upon seven established database sources: (1) the NHGRI-EBI genome-wide association (GWA) study catalogue, (2) the Disease Ontology (DO) database, (3) the DisGeNET (curated) database, (4) the DisGeNET (BeFree), (5) MalaCards, (6) the Medical Subject Heading (MESH) database and the KEGG Database. The impact on gene expression of IDMF, MMF and DRF on the key overlapping MS-associated genes was assessed.
# The specific data for four of the key NFR2 target genes associated with antioxidant and anti-inflammatory effects is presented in FIGS. 7(A) thru 7(D).
# Both TNFAIP3 and NFKBIA encode inhibitory proteins that suppress the NF-KB pathway. Specifically, TNFAIP3 encodes a deubiquitinating enzyme previously linked to MS by genetic association studies: a TNFAIP3 protein abundance is increased in white matter and cortical lesion astrocytes from MS patient brains. Similarly, NFKBIA (IκBα) encodes an NF-KB inhibitor for which promoter polymorphisms have been associated with MS and abundance of this protein is prominent in macrophage nuclei of MS plaques undergoing active demyelination. ICAM1 encodes an endothelial adhesion molecule that promotes leucocyte extravasation and is associated with the initiation and progression of inflammation as well as the targeting of inflammation in the central nervous system (CNS). FIGS. 9(A), 9(B) and 9(C) show the specific data for these three genes.
# Genetic variants of IFR has been associated with MS and some MS treatments such as glatiramer acetate block cytokine-stimulated IRF1 up-regulation. An assessment was undertaken to assess the relative impact of fumarate esters, namely MMF, DRF and IDMF on IFR motif enrichment.
# [4] = tested on: human fetal astrocytes derived from cerebral cortex; test: Comparative RT-PCR evaluation of selected genes in astrocytes; type: cell-based
# Experimental: as §1, §2
# The expression of selected genes was further evaluated using RT-PCR. cDNA was prepared using the AzuraQuant cDNA kit (Azura Genomics, Raynham, Mass.) and PCR reactions were performed using the BioRad iCycler iQ Detection System with Fast Green qPCR Master Mix—Fluor (Azura Genomics). PCR primers were purchased from Realtimeprimers (Elkins Park, Pa.). The ΔΔCt method [Livak K. J. and Schmittgen T. D. Analysis of relative gene expression data using real-time quantitative PCR and the 2(−Delta Delta C(T)) Method. Methods (San Diego, Calif.) 25(4):402-408, 2001]. was used to estimate fold changes with cycle threshold values normalized based upon the expression of glyceraldehyde-3-phosphate dehydrogenase (GAPDH).
# [5] = target: T1, carboxylesterase 2 (CES2); test: Carboxylesterase hydrolysis IDMF v DRF; type: in vitro ADME; conditions: 20 μl of 1 mg/ml CES2, 37° C., pH 7.4
# Experimental: 20 μl of 1 mg/ml carboxylesterase 2 (CES2) was added to each solution and the solutions incubated at 37° C. for the time periods set forth in Table 5. […] Although tolerable for normal patients, HES is undesirable and detrimental for those individuals have kidney and/or liver issues
# [6] = tested on: patients with Relapsing-Remitting Multiple Sclerosis; conditions: cited from earlier work
# [7] = in vivo; cited from earlier work
# [8] = DEFINE and CONFIRM phase III trials
# [9] = DRF 462 mg BID, 96-week study (EVOLVE-MS-1)
structure (smiles),measurement,setting,value
"COC(=O)/C=C/C(=O)OC [DMF, Dimethyl fumarate]",correlation of genome-wide expression responses with those observed in MS patients (Spearman r),cultured astrocytes,0.23
same,ICAM1 expression,human fetal astrocytes,no similar activity
same,expression of genes linked to A1-polarization,human fetal astrocytes,tended to increase expression
same,expression of genes linked to A2-polarization,human fetal astrocytes,decreased expression
same,remaining parent compound,[1]; 0 minutes,1 mM
same,remaining parent compound,[1]; 30 minutes,0.166 mM
same,remaining parent compound,[1]; 60 minutes,0.08 mM
same,remaining parent compound,[1]; 120 minutes,0.014 mM
same,time by which essentially all is hydrolyzed,"[1]; CES2, 37° C.",≤ 60 min
same,fraction not hydrolyzed to MMF,[1]; within thirty minutes,about 17%
same,"Disability reduction, %",MS,38%
same,"Gadolinium enhancement reduction, %",MS,74-90%
same,"Relapse rate reduction vs. placebo, %",MS,44-53%
same,Side effects,MS,"Flushing,"
same,"T2w lesion reduction, %",MS,71-85%
same,"flushing, most reported adverse effect",[2]; [8],24-38%
same,"specific gastrointestinal (GI) adverse effects (nausea, vomiting, diarrhea, upper abdominal pain), patients",[2]; [8],7 to 19%
same,patients who experienced adverse GI effects,"[2]; after 1 year, in these trials",36%
same,"discontinuation of DMF due to GI side effects, patients",[2]; real-world settings,5-19%
"COC(=O)/C=C/C(=O)OCCN1C(=O)CCC1=O [DRF, diroximel fumarate]","effect on TNFAIP3, NFKBIA and ICAM1 expression",[3],effectively no effect
same,OSGIN1 expression,[4]; FIG. 11(B),suppression
same,"expression of key MS-associated genes (IL-6, ICAM1, MALT1, TNFAIP3, IRF1, CXCL8)",[4]; FIGS. 11(C) through 11(H),negligible effect
same,remaining parent compound,[5]; 0 minutes,1 mM
same,remaining parent compound,[5]; 15 minutes,.652 mM
same,remaining parent compound,[5]; 30 minutes,0.482 mM
same,remaining parent compound,[5]; 60 minutes,0.273 mM
same,remaining parent compound,[5]; 120 minutes,0.08 mM
same,reduction of number of days with at least moderate GI symptoms,"[6]; 5-week study, DRF 462 mg BID as compared to DMF 240 mg BID",46%
same,"discontinuation due to adverse GI effects, patients",[6]; [9],6.3%
same,patients who developed adverse GI effects,[6]; [9],30.9%
same,RDC-8439 and methanol generated as minor products,[7],< 10%
same,fraction metabolized to HES and MMF,[7],> 90%
CCCCCCCCc1ccc(CCC(N)(CO)CO)cc1 [Fingolimod],Side effects,MS,First dose
C/C(O)=C(\C#N)C(=O)Nc1ccc(C(F)(F)F)cc1 [Teriflunomide],Side effects,MS,"Gl, hair thinning,"
